Data: PubChem BioAssay (NCI)
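Test compounds were applied to cells in 96-well plates for 48 hours at 5 doses. The concentration for full growth arrest is given as TGI.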

How the values were obtained:
Assay in all cases: NCI tumour cell line growth inhibition, 48 h
[1] = test system: 786-0 renal
[2] = test system: A549 NSCLC
[3] = test system: ACHN renal
[4] = test system: BT-549 breast
[5] = test system: CAKI-1 renal
[6] = test system: CCRF-CEM leukemia
[7] = test system: COLO 205 colon
[8] = test system: DLD-1 colon
[9] = test system: DMS 114 small cell lung
[10] = test system: DMS 273 small cell lung
[11] = test system: DU-145 prostate
[12] = test system: EKVX NSCLC
[13] = test system: HCC-2998 colon
[14] = test system: HCT-116 colon
[15] = test system: HCT-15 colon
[16] = test system: HL-60(TB) leukemia
[17] = test system: HOP-18 NSCLC
[18] = test system: HOP-62 NSCLC
[19] = test system: HOP-92 NSCLC
[20] = test system: HS 578T breast
[21] = test system: HT29 colon
[22] = test system: IGROV1 ovarian
[23] = test system: K-562 leukemia
[24] = test system: KM12 colon
[25] = test system: KM20L2 colon
[26] = test system: LOX IMVI melanoma
[27] = test system: LXFL 529 NSCLC
[28] = test system: M14 melanoma
[29] = test system: M19-MEL melanoma
[30] = test system: MALME-3M melanoma
[31] = test system: MCF7 breast
[32] = test system: MDA-MB-231 breast
[33] = test system: MDA-MB-435
[34] = test system: MDA-N
[35] = test system: MOLT-4 leukemia
[36] = test system: NCI-H226 lung
[37] = test system: NCI-H23 lung
[38] = test system: NCI-H460 lung
[39] = test system: NCI-H522 lung
[40] = test system: NCI/ADR-RES ovarian
[41] = test system: OVCAR-3 ovarian
[42] = test system: OVCAR-4 ovarian
[43] = test system: OVCAR-5 ovarian
[44] = test system: OVCAR-8 ovarian
[45] = test system: PC-3 prostate
[46] = test system: RPMI-8226 leukemia
[47] = test system: RXF 393 renal
[48] = test system: RXF-631 renal
[49] = test system: SF-268 CNS
[50] = test system: SF-295 CNS
[51] = test system: SF-539 CNS
[52] = test system: SK-MEL-2 melanoma
[53] = test system: SK-MEL-28 melanoma
[54] = test system: SK-MEL-5 melanoma
[55] = test system: SK-OV-3 ovarian
[56] = test system: SN12C renal
[57] = test system: SNB-19 CNS
[58] = test system: SNB-75 CNS
[59] = test system: SNB-78 CNS
[60] = test system: SR leukemia
[61] = test system: SW-620 colon
[62] = test system: T-47D breast
[63] = test system: TK-10 renal
[64] = test system: U251 CNS
[65] = test system: UACC-257 melanoma
[66] = test system: UACC-62 melanoma
[67] = test system: UO-31 renal
[68] = test system: XF 498 CNS

Q: With `CCOC1c2cc(OC)c(OC)cc2-c2ccc3ccccc3c2N1C` (stereo not drawn) as the compound, how does the TGI [1] read?
A: > 64.6 µM

Q: What about the TGI [2] of the same compound?
A: 52.7 µM

Q: What about the TGI [3] of the same compound?
A: > 87.5 µM

Q: And the TGI [4]?
A: 28.6 µM

Q: What about the TGI [5] of the same compound?
A: > 79.7 µM

Q: What about the TGI [6] of the same compound?
A: > 100 µM

Q: What about the TGI [7] of the same compound?
A: 22.8 µM

Q: What about the TGI [8] of the same compound?
A: > 75.1 µM

Q: And the TGI [9]?
A: 24.6 µM

Q: What about the TGI [10] of the same compound?
A: 20.2 µM

Q: And the TGI [11]?
A: 52.4 µM

Q: And the TGI [12]?
A: 56.3 µM

Q: What about the TGI [13] of the same compound?
A: 31.3 µM

Q: And the TGI [14]?
A: 17.7 µM

Q: What about the TGI [15] of the same compound?
A: > 83 µM

Q: And the TGI [16]?
A: > 96.5 µM

Q: And the TGI [17]?
A: > 100 µM

Q: And the TGI [18]?
A: 42.6 µM

Q: What about the TGI [19] of the same compound?
A: 58.4 µM

Q: What about the TGI [20] of the same compound?
A: 34.1 µM

Q: And the TGI [21]?
A: 46.6 µM

Q: What about the TGI [22] of the same compound?
A: 63.3 µM

Q: And the TGI [23]?
A: > 100 µM

Q: And the TGI [24]?
A: 21.1 µM

Q: What about the TGI [25] of the same compound?
A: > 90.5 µM

Q: What about the TGI [26] of the same compound?
A: 41.5 µM

Q: What about the TGI [27] of the same compound?
A: 24.2 µM

Q: What about the TGI [28] of the same compound?
A: 40.2 µM

Q: What about the TGI [29] of the same compound?
A: 25.9 µM

Q: And the TGI [30]?
A: 24.1 µM

Q: What about the TGI [31] of the same compound?
A: 51 µM

Q: And the TGI [32]?
A: 36.6 µM

Q: What about the TGI [33] of the same compound?
A: 36.7 µM

Q: And the TGI [34]?
A: 28.6 µM

Q: And the TGI [35]?
A: > 82.7 µM

Q: And the TGI [36]?
A: 66.9 µM

Q: And the TGI [37]?
A: 28.1 µM

Q: And the TGI [38]?
A: 35.5 µM

Q: What about the TGI [39] of the same compound?
A: 18.3 µM

Q: What about the TGI [40] of the same compound?
A: 96.5 µM

Q: What about the TGI [41] of the same compound?
A: 50.9 µM

Q: What about the TGI [42] of the same compound?
A: 54.5 µM

Q: What about the TGI [43] of the same compound?
A: > 80.2 µM

Q: And the TGI [44]?
A: 31.6 µM

Q: What about the TGI [45] of the same compound?
A: 21.6 µM

Q: And the TGI [46]?
A: > 88.7 µM

Q: What about the TGI [47] of the same compound?
A: 58.5 µM

Q: And the TGI [48]?
A: > 56.8 µM

Q: And the TGI [49]?
A: 23.6 µM

Q: And the TGI [50]?
A: > 75.9 µM

Q: And the TGI [51]?
A: 55.6 µM

Q: What about the TGI [52] of the same compound?
A: 28.6 µM

Q: What about the TGI [53] of the same compound?
A: 28.7 µM

Q: And the TGI [54]?
A: 30.8 µM

Q: What about the TGI [55] of the same compound?
A: 59 µM

Q: What about the TGI [56] of the same compound?
A: 46.5 µM

Q: And the TGI [57]?
A: 54.7 µM

Q: And the TGI [58]?
A: 34.9 µM

Q: What about the TGI [59] of the same compound?
A: > 100 µM

Q: And the TGI [60]?
A: > 100 µM

Q: What about the TGI [61] of the same compound?
A: 49.4 µM

Q: What about the TGI [62] of the same compound?
A: 67.1 µM

Q: And the TGI [63]?
A: 78.3 µM

Q: And the TGI [64]?
A: 33 µM

Q: What about the TGI [65] of the same compound?
A: 42.1 µM

Q: What about the TGI [66] of the same compound?
A: 26.8 µM

Q: And the TGI [67]?
A: > 77.8 µM

Q: And the TGI [68]?
A: 31.8 µM
